Drawing on ChEMBL document CHEMBL1147054, “Structural basis of enantioselective inhibition of cyclooxygenase-1 by S-alpha-substituted indomethacin ethanolamides” (J Biol Chem, 2007), this text covers Kinact for two molecules.

The test has as its target T1, Prostaglandin G/H synthase 1 (Ovis aries) (UniProt P05979).
T1 sequence (whole entry): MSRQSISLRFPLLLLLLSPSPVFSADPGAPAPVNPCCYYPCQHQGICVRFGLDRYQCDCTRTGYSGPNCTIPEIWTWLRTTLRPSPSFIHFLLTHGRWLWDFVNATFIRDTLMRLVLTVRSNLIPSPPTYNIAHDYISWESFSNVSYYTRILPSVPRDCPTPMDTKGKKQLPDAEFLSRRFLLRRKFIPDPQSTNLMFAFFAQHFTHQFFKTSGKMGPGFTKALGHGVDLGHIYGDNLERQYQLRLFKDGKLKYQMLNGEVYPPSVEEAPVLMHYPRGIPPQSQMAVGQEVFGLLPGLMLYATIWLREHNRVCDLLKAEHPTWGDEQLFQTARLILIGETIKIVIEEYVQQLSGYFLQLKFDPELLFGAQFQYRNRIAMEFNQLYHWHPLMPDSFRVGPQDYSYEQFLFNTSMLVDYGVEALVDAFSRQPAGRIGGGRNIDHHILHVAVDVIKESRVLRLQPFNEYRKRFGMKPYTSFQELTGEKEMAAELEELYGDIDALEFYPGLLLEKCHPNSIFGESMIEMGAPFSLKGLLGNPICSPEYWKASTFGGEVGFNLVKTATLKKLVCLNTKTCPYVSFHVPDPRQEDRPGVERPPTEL
Particulars: 1 uM.

Structures are written as SMILES.

Description: Binding affinity to ovine COX1 at 1 uM to 25 uM

Molecule `CC[C@H](CO)NC(=O)Cc1c(C)n(C(=O)c2ccc(Cl)cc2)c2ccc(OC)cc12` came in with a Kinact of 2.3 µM. Then `CC[C@@H](CO)NC(=O)Cc1c(C)n(C(=O)c2ccc(Cl)cc2)c2ccc(OC)cc12`, with 4 µM.
